Values of other authors as cited in paper PMC13612640 (Cancer Chemotherapy and Pharmacology, 2026).

Parameters: method as in PMID 41165508

COc1ccc(F)cc1C(=O)NCc1ccc(-c2nn([C@@H](C)C(F)(F)F)c(N)c2C(N)=O)cc1 [pirtobrutinib]
Plasma fraction unbound (fu): 0.046
